Measured values reported in EP4415826B1, “SYNTHESIS AND IN VITRO ANTITUMOR ACTIVITIES OF NOVEL THIOAMIDE SUBSTITUTED PIPERAZINYL-1,2,4-TRIAZINES” (Istanbul Medipol Universitesi, priority 2021, dated 2023).

Legend:
Format in all cases: cell-based
[1] = test system: SH-SY5Y neuroblastoma; assay: MTT cell viability assay, SH-SY5Y; details: 24 hours incubation; for inhibition at 50 µM: Homo sapiens, SH-SY5Y
Protocol: (§1) In the study, […] cell lines were purchased and used: SH-SY5Y(CRL-2266, ATCC, USA), C6 Glioma(CCL-107, ATCC, USA) and HEK293(CRL-1573, ATCC, USA). All cells were cultured and propagated in Dulbecco's Modified Eagle's Medium - high glucose (Cat. No:41966029, Gibco, USA), containing 10% (v/v) Foetal Bovine Serum (Cat. No:10500064, Gibco, USA), […] (10,000 U/mL)(Cat. No:15140122, Gibco, USA).
(§2) In order to assess the viability of the cells MTT […] assay was applied. Initially cells were seeded in the 96-well plates (VWR- 10062900) at a density of 10,000 cells/well and incubated in a cell culture incubator at 37 °C with 5% CO2 for 24 hours. Then, the cells were incubated with the tested compounds at the concentration of 100µM, 50µM, 25µM and 12.5µM for 24 hours. After completion of incubation in molecules, all media were removed and 50 µl MTT (Gold Biotechnology T-030) solution was added to each well and the plates were incubated for an additional 3 hours, followed by addition of 150 µl of MTT solubilization mixture containing 0.1% Triton X-100 (Cat. No:A4025, Biomatik, USA ) and 4mM HCI (Cat. No:07102, Sigma-Aldrich, Germany) in isopropanol(Cat. No:278475, Sigma-Aldrich, Germany). The solution was slowly mixed for 15 minutes to dissolve the MTT formazan crystals and the absorbance of each well was measured with HIDEX Sense Microplate Reader(Cat. No:425-301, HIDEX, Finland) at the wavelength of 570 nm.

[2] = test system: C6 glioma; assay: MTT cell viability assay, C6; details: 24 hours incubation; for inhibition at 50 µM: C6 glioma
Protocol: as §1, §2

[3] = test system: HEK293; assay: MTT cell viability assay, HEK293 healthy cell line; details: for inhibition at 50 µM: Homo sapiens, HEK293, 24 hours incubation
Protocol: as §1, §2

[4] = test system: U87MG glioblastoma; assay: MTT cell viability assay, U87MG; details: 24 hours incubation
Protocol: as §2

[5] = test system: NIH-3T3; assay: MTT cell viability assay, NIH-3T3 healthy cell line
Protocol: as §2

[6] = test system: MCF7 breast tumor; assay: MTT cell viability assay, MCF7
Protocol: as §2

[7] = Mus musculus, NIH3T3, 24 hours incubation
[8] = Homo sapiens, MCF7, 24 hours incubation

SMILES	inhibition at 50 µM [1]	inhibition at 50 µM [2]	inhibition at 50 µM [3]	IC50 ([4]; Homo sapiens, U-87 MG)	IC50 [5, 7]	% inhibition (50 uM) SH-SY5Y [1]	% inhibition (50 uM) C6 [2]	% inhibition (50 uM) HEK293 ([3]; 24 hours incubation)	IC50 [4]	IC50 ([6]; 24 hours incubation)	IC50 ([5]; 24 hours incubation)	IC50 [6, 8]
S=C(Nc1ccc(Cl)cc1)N1CCN(c2nnc(-c3ccc(Cl)cc3)c(-c3ccc(Cl)cc3)n2)CC1 [Compound 1i, 4-(5,6-bis(4-chlorophenyl)-1,2,4-triazin-3-yl)-N-(4-chlorophenyl)piperazine-1-carbothioamide]	83.6%	78.3%	68.4%	98.6 µM	81.5 µM							
N.N.[Cl][Pt][Cl] [Cisplatin, reference compound]						97.80%	79.02%	52.60%	10 µM	3.55 µM	2.05 µM	
Cc1ccc(NC(=S)N2CCN(c3nnc(-c4ccccc4)c(-c4ccccc4)n3)CC2)cc1 [Compound 1c, 4-(5,6-diphenyl-1,2,4-triazin-3-yl)-N-(p-tolyl)piperazine-1-carbothioamide]	61.6%	46.8%	92.6%									73.1 µM
O=[N+]([O-])c1ccc(NC(=S)N2CCN(c3nnc(-c4ccccc4)c(-c4ccccc4)n3)CC2)cc1 [Compound 1e, 4-(5,6-diphenyl-1,2,4-triazin-3-yl)-N-(4-nitrophenyl)piperazine-1-carbothioamide]	21.9%	94.4%	95.9%									
CCNC(=S)N1CCN(c2nnc(-c3ccccc3)c(-c3ccccc3)n2)CC1 [Compound 1a, 4-(5,6-diphenyl-1,2,4-triazin-3-yl)-N-ethylpiperazine-1-carbothioamide]	47.3%	37.1%	97.3%	29.7 µM	33.2 µM							62.8 µM
COc1ccc(-c2nnc(N3CCN(C(=S)Nc4ccccc4)CC3)nc2-c2ccc(OC)cc2)cc1 [Compound 1g, 4-(5,6-bis(4-methoxyphenyl)-1,2,4-triazin-3-yl)-N-phenylpiperazine-1-carbothioamide]	46.2%	63.7%	97.4%	68.1 µM	76 µM							91.2 µM
COc1ccc(NC(=S)N2CCN(c3nnc(-c4ccccc4)c(-c4ccccc4)n3)CC2)cc1 [Compound 1d, 4-(5,6-diphenyl-1,2,4-triazin-3-yl)-N-(4-methoxyphenyl)piperazine-1-carbothioamide]	68%	93.3%	98%	55 µM								61.6 µM
S=C(Nc1ccccc1)N1CCN(c2nnc(-c3ccc(Cl)cc3)c(-c3ccc(Cl)cc3)n2)CC1 [Compound 1h, 4-(5,6-bis(4-chlorophenyl)-1,2,4-triazin-3-yl)-N-phenylpiperazine-1-carbothioamide]	87.9%	77.9%	87.4%		40.2 µM							77.2 µM
S=C(Nc1ccc(Cl)cc1)N1CCN(c2nnc(-c3ccccc3)c(-c3ccccc3)n2)CC1 [Compound 1f, N-(4-chlorophenyl)-4-(5,6-diphenyl-1,2,4-triazin-3-yl)piperazine-1-carbothioamide]	94.1%	66.6%	73.6%	59.1 µM	65.3 µM							
S=C(Nc1ccccc1)N1CCN(c2nnc(-c3ccccc3)c(-c3ccccc3)n2)CC1 [Compound 1b, 4-(5,6-diphenyl-1,2,4-triazin-3-yl)-N-phenylpiperazine-1-carbothioamide]	84.9%	86.1%	96.1%	46 µM	42.6 µM							
